The results in this text go back to patent publication US10544125B2, “Process for preparing an anti-cancer agent, 1-((4-(4-fluoro-2-methyl-1H-indol-5-yloxy)-6-methoxyquinolin-7-yloxy)methyl)cyclopropanamine, its crystalline form and its salts” (Advenchen Pharmaceuticals, LLC, priority 2015, dated 2020).

≈ marks a conversion by molar mass, not a printed value. Counter-ions that a name gives are not always drawn.

Series [1] is described as follows: Conventional water solubility test. In kind it is physicochemical. The source says:
Conventional water solubility test has been conducted to give the following results: […]

Series [2] deals with laser-induced CNV. Kind of series: Mouse model of laser-induced choroidal neovascularization (CNV). To be noted: for reduction in average size of laser-induced CNV: C57 BL/6 mice, day -1 to day 10, FIG. 18. In kind it is in vivo, C57 BL/6 mice. As to the method: A mouse model of laser-induced choroidal neovascularization (CNV)
(1) Experiments were performed in C57 BL/6 mice at 10 to 12 weeks of age. Laser CNV was induced with a 532 nm diode laser mounted on a slit lamp, using […], 100 ms duration and 100 mW laser energy. Each eye received 4 laser burns. Stock solution of AL3818-H1 was made by dissolving the compound in water to 25 mg/ml concentration, and further diluted to working solution of either 250 or 25 μg/ml in water. Mice were orally gavaged at dosage of 2.5 or 0.25 mg/kg body weight, in volume of 200 μl per 20 gram of body weight, once every day starting at one day before laser treatment until 10 days afterwards. Control group mice will receive gavage with water which is used to dissolve the compound. By the end of the experiment, mice were subjected to fluorescence angiography to exclude the spots with hemorrhage and other mechanic injuries caused by the procedures. Mice were sacrificed and CNV size was measured by immunostaining of RPE/choroid flat mount co-stained with FITC-conjugated isolectin B4 and anti-ICAM2 antibody. For groups of control, 0.25 mg/kg and 2.5 mg/kg, we examined 43, 44 and 49 eyes on RPE/choroid flat mount. After immunostaining, images were taken on a Zeiss fluorescence microscope. CNV size was measured in Image J software. […] (2) The potential synergistic or additive effects between AL3818-M and anti-VEGF antibody was also studied. Immediately after laser burn, mice were treated with a monoclonal VEGF neutralizing antibody from R&D Systems (mAb AF564) at 1 μg dosage by intravitreal injection. We had 4 experimental groups: control (treated with water), AL3818-M, anti-VEGF, and AL3818-M+anti-VEGF. A total of 75 laser spots were analyzed. Mice in control or AL3818-M alone group received the intravitreal injection of saline in the same 2 μl volume.

Series [3] has as its system Ishikawa (endometrial). Kind of series: In vitro MTT (proliferation) assay. The format is cell-based, human. The settings on record: Ishikawa cancer cell line. As for the experimental part: (§1) In vitro MTT (proliferation) assay was performed with compound from above examples to give following inhibition results: […]
The test system of series [4] is SW579 (thyroid). Nature of the series: In vitro MTT (proliferation) assay. To be noted: SW579 cancer cell line. The format is cell-based. As for the experimental part: as §1
The test system of series [5] is MKN45 (gastric). Kind of series: In vitro MTT (proliferation) assay. In kind it is cell-based. To be noted: MKN45 cancer cell line. As to the method:
as §1

The test system of series [6] is NC1-H157 (lung). Kind of series: In vitro MTT (proliferation) assay. The format is cell-based. The settings on record: NC1-H157 cancer cell line. As for the experimental part: as §1
Series [7] has as its system BEL7404 (liver). Nature of the series: In vitro MTT (proliferation) assay. The settings on record: BEL7404 cancer cell line. The format is cell-based. As for the experimental part: as §1
Series [8] deals with PC-3 (prostate). Nature of the series: In vitro MTT (proliferation) assay. The format is cell-based. The settings on record: PC-3 cancer cell line. As to the method:
as §1

The subject of series [9] is MDA-MB-231 (breast). Kind of series: In vitro MTT (proliferation) assay. The format is cell-based. The settings on record: MDA-MB-231 cancer cell line. As to the method: as §1
Series [10] concerns SKOV3 (ovarian). Nature of the series: In vitro MTT (proliferation) assay. In kind it is cell-based. To be noted: SKOV3 cancer cell line. As for the experimental part:
as §1

The test system of series [11] is Saos-2 (sarcoma). Nature of the series: In vitro MTT (proliferation) assay. In kind it is cell-based. To be noted: Saos-2 cancer cell line. As for the experimental part:
as §1

The subject of series [12] is PANC-1 (pancreatic). Nature of the series: In vitro MTT (proliferation) assay. The format is cell-based. To be noted: PANC-1 cancer cell line. As to the method: as §1
Series [13] concerns HCT1 16 (colon). Kind of series: In vitro MTT (proliferation) assay. The format is cell-based. To be noted: HCT1 16 cancer cell line. As to the method: as §1
The test system of series [14] is Hela (cervical). Nature of the series: In vitro MTT (proliferation) assay. To be noted: Hela cancer cell line. The format is cell-based. As to the method:
as §1

The compound `COc1cc2c(Oc3ccc4[nH]c(C)cc4c3F)ccnc2cc1OCC1(N)CC1` [AL3818-H1, 1-((4-(4-Fluoro-2-methyl-1H-indol-5-yloxy)-6-methoxy-quinolin-7-yloxy)-methyl)cyclopropanamine Bishydrochloride Acid Salt] returned a water solubility in series [1] of 6000 µg/mL. Further, the “reduction in average size of laser-induced CNV” value in series [2] (oral gavage 0.25 mg/kg body weight once daily) and in series [2] (oral gavage 2.5 mg/kg body weight once daily) was around 70% throughout. Also, the IC50 came to 5.67 µM in [3]; 2.33 µM in [4]; 1.77 µM in [5]; 7.18 µM in series [6]; 2.75 µM in series [7]; 5.53 µM in [8]. For the same compound, the IC50 in series [9] (Homo sapiens, MDA-MB-231, MTT (proliferation) assay) stood at 10.2 µM; in series [10] (Homo sapiens, SK-OV-3, MTT (proliferation) assay), 5.34 µM; in [11] (Homo sapiens, SAOS-2, MTT (proliferation) assay), 4.68 µM; in series [12] (Homo sapiens, PANC-1, MTT (proliferation) assay) it was 1.58 µM; in series [13] (Homo sapiens, HCT-116, MTT (proliferation) assay), 3.45 µM; in series [14] (Homo sapiens, HeLa), 3.7 µM.
Consider `COc1cc2c(Oc3ccc4[nH]c(C)cc4c3F)ccnc2cc1OCC1(N)CC1.O=C(O)CCC(=O)O` [AL3818-S, 1-((4-(4-Fluoro-2-methyl-1H-indol-5-yloxy)-6-methoxy-quinolin-7-yloxy)methyl)cyclopropanamine Succinic Acid Salt], for which the solubility in series [1] was 100 µg/mL. Moreover, the IC50 in series [3] stood at 1.32 µM; in series [4], 2.61 µM; in series [5], 4.16 µM; in series [6], 2.28 µM; in [7] it was 1.43 µM; in series [8], 4.41 µM. Also, the IC50 in series [9] (MTT (proliferation) assay) came out at 6.1 µM; in series [10] (MTT (proliferation) assay), 7.6 µM; in [11] (MTT (proliferation) assay), 5.68 µM; in [12] (MTT (proliferation) assay) it was 1.24 µM; in series [13] (MTT (proliferation) assay), 3.94 µM; in series [14], 4.66 µM.
Take `COc1cc2c(Oc3ccc4[nH]c(C)cc4c3F)ccnc2cc1OCC1(N)CC1` [AL3818-F, 1-((4-(4-Fluoro-2-methyl-1H-indol-5-yloxy)-6-methoxyquinolin-7-yloxy)methyl)cyclopropanamine]: in series [1], the water solubility is 20 µg/mL (≈ 49.1 µM). The IC50 in [3] was determined as 1.04 µM; in series [4], 1 µM; in series [5] it was 3.11 µM; in series [6], 1.83 µM; in series [7], 0.93 µM; in series [8], 5.11 µM. The IC50 turned out to be 5.56 µM in series [9] (MTT (proliferation) assay); 5.97 µM in [10] (MTT (proliferation) assay); 5.13 µM in [11] (MTT (proliferation) assay); 1.34 µM in [12] (MTT (proliferation) assay); 3.25 µM in [13] (MTT (proliferation) assay); 3.23 µM in series [14].
In turn, `COc1cc2c(Oc3ccc4[nH]c(C)cc4c3F)ccnc2cc1OCC1(N)CC1.Cl.Cl.O` [AL3818-H2, 1-((4-(4-Fluoro-2-methyl-1H-indol-5-yloxy)-6-methoxy-quinolin-7-yloxy)methyl)cyclopropanamine bishydrochloridehydrate Acid Salt] displayed a water solubility in series [1] of 7000 µg/mL. For the same compound, the IC50 in series [3] worked out at 1.56 µM; in [4], 1.29 µM; in series [5], 3.9 µM; in series [6], 2.29 µM; in [7], 1.74 µM; in [8] it was 3.88 µM. Further, the IC50 in series [9] (MTT (proliferation) assay) is 5.71 µM; in series [10] (MTT (proliferation) assay), 5.7 µM; in [11] (MTT (proliferation) assay) it was 4.98 µM; in series [12] (MTT (proliferation) assay) it was 1.55 µM; in series [13] (MTT (proliferation) assay), 3.34 µM; in series [14] it was 4.07 µM.
Regarding `COc1cc2c(Oc3ccc4[nH]c(C)cc4c3F)ccnc2cc1OCC1(N)CC1.O=C(O)/C=C\C(=O)O.O=C(O)/C=C\C(=O)O` [AL3818-M, 1-((4-(4-Fluoro-2-methyl-1H-indol-5-yloxy)-6-methoxy-quinolin-7-yloxy)-methyl)cyclopropanamine Bismaleic Acid Salt], in series [1], the solubility amounted to 500 µg/mL. In series [2] (0.15 mg/kg together with 1 μg anti-VEGF antibody (mAb AF564) intravitreal, P<0.01, FIG. 19), the “reduction in laser CNV as compared to the control group” value is around 30%. Besides, the IC50 in [3] is 1.34 µM; in series [4], 1.15 µM; in series [5], 2.65 µM; in [6], 2.02 µM; in [7], 1.15 µM; in series [8], 3.62 µM. Also, the IC50 in [9] (MTT (proliferation) assay) was 5.37 µM; in series [10] (MTT (proliferation) assay), 6.56 µM; in series [11] (MTT (proliferation) assay), 5.49 µM; in series [12] (MTT (proliferation) assay) it was 1.15 µM; in [13] (MTT (proliferation) assay), 4.62 µM; in [14], 3.94 µM.

The term IC50 denotes the concentration at which inhibition is half-maximal. As a reminder, the solubility is the dissolved amount per volume that the medium holds. Read a low solubility as little dissolved substance.
